How the values were obtained:
[1] = Blood Brain Barrier penetration (plasma and brain concentration); assay type: in vivo
[2] = Stability study of drug substance in sealed pouches; assay type: physicochemical; details: ambient temperature and 40° C.-45° C. (no humidity control), 3-month period, polyethylene pouches in aluminum pouch
Protocol: A stability study has been completed on Compound P3.1. Samples of Compound P3.1 were aliquoted into double-walled polyethylene pouches, which were tied off and then heat-sealed in an aluminum pouch. Samples were stored at ambient temperature and at 40° C.-45° C. (no humidity control) with testing performed over a 3-month period.

Kp at 0.5 h ([1]; brain/plasma, 30 min, read-out: Brain/Plasma ratio after 30 minutes)	Kp at 2 h ([1]; brain/plasma, 120 min, read-out: Brain/Plasma ratio after 120 minutes)	Changes to appearance or purity of the material [2]	Brain concentration after 120 minutes ([1]; brain, 120 min)	SMILES
0.04	0.03	no changes to appearance or purity		C[C@@H]1CN(Cc2ncccn2)C[C@H]1c1cn2c(C3CCOCC3)ncc2c(=O)[nH]1 [Compound P3.1, 6-[(3S,4S)-4-methyl-1-(pyrimidin-2-ylmethyl)pyrrolidin-3-yl]-3-tetrahydropyran-4-yl-7H-imidazo[1,5-a]pyrazin-8-one]
			detection limit	O=c1[nH]c(CN2CC(Oc3cccnc3)C2)cn2c(C3CCOCC3)ncc12 [Compound (P2)]

Source: patent publication US11370795B2, “Process for the synthesis of 6-[(3S,4S)-4-methyl-1-(pyrimidin-2-ylmethyl)pyrrolidin-3-yl]-3-tetrahydropyran-4-yl-7H-imidazo[1,5-a]pyrazin-8-one” (Imara Inc., priority 2017, dated 2022)
